{"source": "patent US20240002846A1", "about": "“COMPOSITIONS AND METHODS FOR THE DIAGNOSIS AND TREATMENT OF ITCH” (Duke University, priority 2020, published 2024)", "key": {"[1]": {"tested_on": "extracellular release of miR-146a", "experiment": "Extracellular release of miRs from cultured mouse keratinocytes (RT-qPCR)", "type": "cell-based", "conditions": "mouse keratinocytes", "description": "Primary mouse keratinocytes were cultured following previous protocol (Chen et al. J. Biol. Chem. 2016, 291, 10252-10262). The epidermis from the back skin of newborn WT or keratinocyte-Trpv4 cKO mice was separated from the dermis by floating the skin on 0.25% trypsin (Gibco, Gaithersburg, MD) for 14-18 h at 4° C. Basal keratinocytes were separated from the cornified sheets by filtration through a […] cell strainer. Keratinocytes were plated on collagen I-coated dishes or glass coverslips and grown in EME media (Gibco, Gaithersburg, MD) containing 8% chelex (Bio-rad, Hercules, CA)-treated FBS with the final Ca^2+ adjusted to 0.05 mM, bovine pituitary extract (50 μg/mL), epidermal growth factor (5 ng/mL), and lx antibiotics/antimycotics (Gibco, Gaithersburg, MD) in a humidified incubator with 5% CO2 at 37° C. for 5-7 days until use. To knockdown Trpv4 in isolated keratinocytes from newborn keratinocyte-Trpv4 cKO mice, cells were treated with 4-OH tamoxifen at 500 nM for 72 h.\nMeasurement of released vesicles and extracellular miR-146a from cultured keratinocytes or sera Medium for the cultured keratinocytes was replaced with serum-free medium 2 h before LPC stimulation. […] Finally, cell-free supernatants were further purified using a Vesicular Isolation kit (Invitrogen, Waltham, MA) according to the manufacturer's instructions, with final product resuspended in ice-cold PBS. Total RNA extraction was then carried out using a Total RNA Isolation kit (Invitrogen, Waltham, MA). Enrichment for small RNAs was carried out by sequential increase in ethanol concentration and passing through glass-fiber filters. RNase free water was used to elute small RNAs in the final elution step. For human PBC sera or sera from ANIT-treated mice, RNA was isolated using Qiagen miRNeasy Plasma/Serum kit. cDNA synthesis from extracted RNAs was performed according to manufacturer's instructions (qSTAR miRNA kit, Origene). For qPCR, the stem-loop oligonucleotides specific for the following miRs are as follows: miR-146a-5p (GAGAACTGAATTCCATGGG, SEQ ID NO: 4), miR-let-7b (GAGGTAGTAGGTTGTGTGG, SEQ ID NO: 5), miR-125b-1 (CCCT GAGACCCTAACTTG, SEQ ID NO: 6), miR-203 (GTGGTTC TTGACAGTTCAAC, SEQ ID NO: 7), and miR-16-5p (AGCAGCAC GTAAATATTGGC, SEQ ID NO: 8). Primers were purchased from Integrated DNA Technologies company (Coralville, IA). qPCR reactions for each sample were run in triplicates, including no-template controls. MiR-16-5p was selected as a control due to the relative constancy of its expression in various cultured cell lines (Schwarzenbach et al. Clin. Chem. 2015, 61, 1333-1342). qPCR for this miR was performed in tandem with target miRs to determine the optimal normalization procedure. To investigate the effects of the specific TRPV4 inhibitors GSK205 or HC067047 and the specific MEK inhibitor U0126 on LPC-induced extracellular release of miR-146a, cells were incubated with the inhibitors for 15 min before stimulation. Control cells received the same volume of vehicle.\nVesicular release from cultured keratinocytes was quantified by detecting acetylcholinesterase (AChE) activity in the extracellular release fluid. (Gupta et al. Am. J. Physiol. Heart Circ. Physiol. 2007, 292, H3052-3056; Malik et al. Methods Mol. Biol. 2016, 1448, 237-248). CBQCA Protein Quantitation Kit (Molecular Probes, Eugene, OR) was used to assess the total protein amounts of each sample. Quantitation was carried out according to kit instructions (Fluorocet, Systems Biosciences, Palo Alto, CA). Briefly, vesicles were lysed to release esterase enzyme whose activity is measured using a florescence dye, excitation at 544 nm and emission at 590 nm. Fluostar Optima (BMG Labtech, Cary, NC) microplate reader was used to measure esterase activity. 500 ng protein equivalent of input was used per well. […]"}, "pERK expression": {"tested_on": "pERK expression", "experiment": "pERK Western blot in cultured human keratinocytes", "type": "cell-based", "conditions": "inhibitor 10 μM", "description": "Primary human keratinocytes were cultured as previously described (Chen et al. J. Biol. Chem. 2016, 291, 10252-10262). In brief, surgically discarded foreskin samples, obtained from Duke Children's Hospital in accordance to institutionally approved IRB protocol, were incubated with Dispase (Gibco, Gaithersburg, MD, 4 U/mL) for 12-16 h at 4° C. followed by 0.05% trypsin (Gibco, Gaithersburg, MD) for 10-20 min at 37° C. Cells were maintained in keratinocyte serum-free media (Invitrogen, Waltham, MA) with 5% CO2 at 37° C. and used at passage 2-3.\nWestern Blot. Routine procedures were followed (Chen et al. J. Biol. Chem. 2016, 291, 10252-10262, Chen et al. Pain 2014, 155, 2662-2672). Briefly, cultured keratinocytes and dissected dorsal neck skin (0.5×0.5 cm, the area that received the treatment) were protein-extracted in radioimmunoprecipitation assay (RIPA, Sigma, St. Louis, MO) buffer and electroblotted to polyvinylidene fluoride (PVDF) membranes after gel separation of proteins in a 4-15% polyacrylamide gel (Bio-Rad, Hercules, CA). […] Immunoblot band intensity was quantitated using the software Image J and ERK served as a control for pERK expression."}, "mice": {"tested_on": "mice", "experiment": "Scratching behavior after i.d. injection into dorsal neck skin", "type": "in vivo, mouse", "conditions": "i.d. into dorsal neck, LPA 18:1 500 μg, LPC 50-500 μg, LPC species at the same dose", "description": "Behavioral assessment. Mice were shaved at the dorsal neck 1 d before experiments. Mice were allowed to acclimate to a Plexiglas chamber for at least 30 min before testing and received intradermal (i.d.) injection of 50 μL of LPA 18:1, LPC, LPC 14:0, LPC 16:0, LPC 18:0, LPC 18:1, miR-146a mimic, miR-146a scramble, ATP or vehicles through a 30-gauge needle (Becton Dickinson, Franklin Lakes, NJ) into the neck skin. After injections, mice were immediately placed back to the chamber, and the scratching behavior was recorded by a Panasonic video camera for 30 min. Hind limb scratching behavior directed toward the injected area at the nape of neck was observed. One scratch is defined as a lifting of the hind limb toward the injection site and then a replacing of the limb back to the floor, regardless of how many scratching strokes take place between those two movements. Behavioral analysis was conducted by observers blinded to genotype."}}, "note": "Entries after “also recorded” stand apart in the source; their conditions may differ."}
{"compound": "Cc1c(C(=O)Nc2cccc(C(F)(F)F)c2)cc(-c2ccccc2)n1CCCN1CCOCC1", "note": "[HC067047]", "values": [{"measurement": "effect of TRPV4 inhibitors on LPC-induced release of miR-146a", "setting": "[1]; inhibitor 10 μM", "result": "completely eliminated"}, {"measurement": "effect on LPC-increased pERK expression", "setting": "pERK expression", "result": "eliminated the increase; also recorded: abolished"}]}
{"compound": "N#CC(=C(/N)Sc1ccccc1N)/C(C#N)=C(\\N)Sc1ccccc1N", "note": "[U0126]", "values": [{"measurement": "effect of MEK inhibitor on LPC-induced release of miR-146a", "setting": "[1]; 10 μM", "result": "eliminated; also recorded: abolished"}]}
{"compound": "LPC 18:1", "values": [{"measurement": "scratching behavior (itch) induced by i.d. injection of lipid", "setting": "mice", "result": "caused robust itch; also recorded: most potent"}, {"measurement": "scratching behavior (itch) induced by i.d. injection of lipid", "setting": "mice; listed as LPC (18:1)", "result": "the most potent"}]}
